pIC50: −log10 of the molar value.
Each compound was assayed on TNF-alpha release in THP-1 cells (assay: LPS-induced TNF-alpha release in THP-1 cells). Details: Homo sapiens, THP-1, LPS-stimulated THP-1 cells; read-out: 50% inhibition in the LPS-induced TNF-alpha release in THP-1 cells assay at concentrations within the range.
Type: cell-based
Procedure: The effects of compounds on TNF-alpha production by lipopolysaccharide (LPS)-stimulated […] monocytes were examined as follows.
Undifferentiated THP-1 cells were maintained in RPMI 1640 with Glutamax I containing β-mercaptoethananol (50 μM) and foetal calf serum (FCS-10%) at densities of about 1×10^6 cells per ml. For incubations without and with test reagents, cells were seeded at the indicated densities under serum-deprived (1% FCS) conditions. Compounds were dissolved in dimethylsulfoxide (DMSO-100%) and incubated with the cells to give a fmal DMSO concentration of 0.3%. Control and untreated cell samples were incubated with DMSO (0.3%).
THP-1 cells (1×10 ^6 cells/ml, total volume 150 μl) in culture medium were incubated for 1 hour (5% CO2, 37° C.) with fresh medium containing compounds or vehicle (0.1-0.3% dimethylsulfoxide). LPS (20 μg/ml) was then added to the cells and the incubation continued for a fuirther 18 hours. Cell supernatants were removed into 96 well plates for storage at −20° C.
TNF-alpha concentrations in cell supernatants were quantified by sandwich ELISA. Briefly, ELISA plates were coated overnight with 2 μg/ml of mouse anti-human TNF-alpha antibody in bicarbonate buffer (pH 9.9). After washing the wells with wash buffer (0.05% (v/v) Tween in PBS)and blocking unoccupied sites (1% BSA in wash buffer), monocyte supernatant samples or human recombinant TNF-alpha standards were added into the corresponding wells of the ELISA plate at 1:10 dilution. Biotinylated rabbit polyclonal anti-human TNF-alpha antibody (3 μg/ml) was used as the second antibody and streptavidin-horseradish peroxidase was used as the detection antibody. The peroxidase substrate is 3,3′,5,5′-tetramethylbenzidine (TMB) in the presence of hydrogen peroxide.
TNFα concentrations in supernatants from control and LPS-stimulated monocyte incubations were calculated by interpolation from a standard (log/log) curve (0.125-16 ng/ml) fitted by Excel Fit using the Activity Base software. Compounds were tested within the concentration range of 1×10^−9M to 1×10^−6M.

pIC50, 6.30 to 8.00:
CO[C@H](C(=O)N1CCC(Cc2cccc(NC(=O)Nc3cc(C(C)(C)C)nn3-c3ccc(C)cc3)c2)CC1)c1ccccc1 [Compound A4, 1-(5-tert-Butyl-2-p-tolyl-2H-pyrazol-3-yl)-3-{3-[1-((S)-2-methoxy-2-phenyl-acetyl)-piperidin-4-ylmethyl]-phenyl}-urea]
Cc1ccc(-n2nc(C(C)(C)C)cc2NC(=O)Nc2cccc(CC3CCN(C(=O)c4csnn4)CC3)c2)cc1 [Compound A6, 1-(5-tert-Butyl-2-p-tolyl-2H-pyrazol-3-yl)-3-{3-[1-([1,2,3]thiadiazole-4-carbonyl)-piperidin-4-ylmethyl]-phenyl}-urea]
Cc1ccc(-n2nc(C(C)(C)C)cc2NC(=O)Nc2cccc(CC3CCN(C(=O)c4ccc5cnccc5n4)CC3)c2)cc1 [Compound A7, 1-(5-tert-Butyl-2-p-tolyl-2H-pyrazol-3-yl)-3-{3-[1-([1,6]naphthyridine-2-carbonyl)-piperidin-4-ylmethyl]-phenyl}-urea]
Cc1ccc(-n2nc(C(C)(C)C)cc2NC(=O)Nc2cccc(CC3CCN(C(=O)c4ccc5cccnc5n4)CC3)c2)cc1 [Compound A8, 1-(5-tert-Butyl-2-p-tolyl-2H-pyrazol-3-yl)-3-{3-[1-([1,8]naphthyridine-2-carbonyl)-piperidin-4-ylmethyl]-phenyl}-urea]
Cc1ccc(-n2nc(C(C)(C)C)cc2NC(=O)Nc2cccc(CC3CCN(C(=O)c4nccc5ccccc45)CC3)c2)cc1 [Compound A13, 1-(5-tert-Butyl-2-p-tolyl-2H-pyrazol-3-yl)-3-{3-[1-(isoquinoline-1-carbonyl)-piperidin-4-ylmethyl]-phenyl}-urea]
COc1cccc(C(=O)N2CCC(Cc3cccc(NC(=O)Nc4cc(C(C)(C)C)nn4-c4ccc(C)cc4)c3)CC2)c1OC [Compound A21, 1-(5-tert-Butyl-2-p-tolyl-2H-pyrazol-3-yl)-3-{3-[1-(2,3-dimethoxy-benzoyl)-piperidin-4-ylmethyl]-phenyl}-urea]
COc1cccc(CC(=O)N2CCC(Cc3cccc(NC(=O)Nc4cc(C(C)(C)C)nn4-c4ccc(C)cc4)c3)CC2)c1OC [Compound A22, 1-(5-tert-Butyl-2-p-tolyl-2H-pyrazol-3-yl)-3-(3-{1-[2-(2,3-dimethoxy-phenyl)-acetyl]-piperidin-4-ylmethyl}-phenyl)-urea]
COc1cc(OC)c(C(=O)N2CCC(Cc3cccc(NC(=O)Nc4cc(C(C)(C)C)nn4-c4ccc(C)cc4)c3)CC2)c(OC)c1 [Compound A24, 1-(5-tert-Butyl-2-p-tolyl-2H-pyrazol-3-yl)-3-{3-[1-(2,4,6-trimethoxy-benzoyl)-piperidin-4-ylmethyl]-phenyl}-urea]
Cc1ccc(-n2nc(C(C)(C)C)cc2NC(=O)Nc2cccc(CC3CCN(C(=O)Cc4ccc(F)cc4F)CC3)c2)cc1 [Compound A26, 1-(5-tert-Butyl-2-p-tolyl-2H-pyrazol-3-yl)-3-(3-{1-[2-(2,4-difluoro-phenyl)-acetyl]-piperidin-4-ylmethyl}-phenyl)-urea]
Cc1ccc(-n2nc(C(C)(C)C)cc2NC(=O)Nc2cccc(CC3CCN(C(=O)c4cc(C)oc4C)CC3)c2)cc1 [Compound A29, 1-(5-tert-Butyl-2-p-tolyl-2H-pyrazol-3-yl)-3-{3-[1-(2,5-dimethyl-furan-3-carbonyl)-piperidin-4-ylmethyl]-phenyl}-urea]
Cc1ccc(-n2nc(C(C)(C)C)cc2NC(=O)Nc2cccc(CC3CCN(C(=O)c4cccnc4N)CC3)c2)cc1 [Compound A39, 1-{3-[1-(2-Amino-pyridine-3-carbonyl)-piperidin-4-ylmethyl]-phenyl}-3-(5-tert-butyl-2-p-tolyl-2H-pyrazol-3-yl)-urea]
Cc1ccc(-n2nc(C(C)(C)C)cc2NC(=O)Nc2cccc(CC3CCN(C(=O)c4ccc(S(C)(=O)=O)cc4Cl)CC3)c2)cc1 [Compound A40, 1-(5-tert-Butyl-2-p-tolyl-2H-pyrazol-3-yl)-3-{3-[1-(2-chloro-4-methanesulfonyl-benzoyl)-piperidin-4-ylmethyl]-phenyl}-urea]
Cc1ccc(-n2nc(C(C)(C)C)cc2NC(=O)Nc2cccc(CC3CCN(C(=O)c4ccco4)CC3)c2)cc1 [Compound A45, 1-(5-tert-Butyl-2-p-tolyl-2H-pyrazol-3-yl)-3-{3-[1-(furan-2-carbonyl)-piperidin-4-ylmethyl]-phenyl}-urea]
COc1ccccc1CC(=O)N1CCC(Cc2cccc(NC(=O)Nc3cc(C(C)(C)C)nn3-c3ccc(C)cc3)c2)CC1 [Compound A50, 1-(5-tert-Butyl-2-p-tolyl-2H-pyrazol-3-yl)-3-(3-{1-[2-(2-methoxy-phenyl)-acetyl]-piperidin-4-ylmethyl}-phenyl)-urea]
Cc1ccc(-n2nc(C(C)(C)C)cc2NC(=O)Nc2cccc(CC3CCN(C(=O)c4ccoc4C)CC3)c2)cc1 [Compound A52, 1-(5-tert-Butyl-2-p-tolyl-2H-pyrazol-3-yl)-3-{3-[1-(2-methyl-furan-3-carbonyl)-piperidin-4-ylmethyl]-phenyl}-urea]
Cc1ccc(-n2nc(C(C)(C)C)cc2NC(=O)Nc2cccc(CC3CCN(C(=O)c4cnccn4)CC3)c2)cc1 [Compound A64, 1-(5-tert-Butyl-2-p-tolyl-2H-pyrazol-3-yl)-3-{3-[1-(pyrazine-2-carbonyl)-piperidin-4-ylmethyl]-phenyl}-urea]
Cc1ccc(-n2nc(C(C)(C)C)cc2NC(=O)Nc2cccc(CC3CCN(C(=O)C4CCCO4)CC3)c2)cc1 (stereo not shown) [Compound A66, 1-(5-tert-Butyl-2-p-tolyl-2H-pyrazol-3-yl)-3-{3-[1-(tetrahydro-furan-2-carbonyl)-piperidin-4ylmethyl]-phenyl}-urea]
COc1ccc(CC(=O)N2CCC(Cc3cccc(NC(=O)Nc4cc(C(C)(C)C)nn4-c4ccc(C)cc4)c3)CC2)cc1OC [Compound A69, 1-(5-tert-Butyl-2-p-tolyl-2H-pyrazol-3-yl)-3-(3-{1-[2-(3,4-dimethoxy-phenyl)-acetyl]-piperidin-4-ylmethyl}-phenyl)-urea]
Cc1ccc(-n2nc(C(C)(C)C)cc2NC(=O)Nc2cccc(CC3CCN(C(=O)Cc4ccc5c(c4)OCO5)CC3)c2)cc1 [Compound A70, 1-{3-[1-(2-Benzo[1,3]dioxol-5-yl-acetyl)-piperidin-4-ylmethyl]-phenyl}-3-(5-tert-butyl-2-p-tolyl-2H-pyrazol-3-yl)-urea]
COc1cc(OC)cc(C(=O)N2CCC(Cc3cccc(NC(=O)Nc4cc(C(C)(C)C)nn4-c4ccc(C)cc4)c3)CC2)c1 [Compound A73, 1-(5-tert-Butyl-2-p-tolyl-2H-pyrazol-3-yl)-3-{3-[1-(3,5-dimethoxy-benzoyl)-piperidin-4-ylmethyl]-phenyl}-urea]
Cc1ccc(-n2nc(C(C)(C)C)cc2NC(=O)Nc2cccc(CC3CCN(C(=O)c4cccc(C(C)C#N)c4)CC3)c2)cc1 (stereo not shown) [Compound A79, 1-(5-tert-Butyl-2-p-tolyl-2H-pyrazol-3-yl)-3-(3-{1-[3-(cyano-methyl-methyl)-benzoyl]-piperidin-4-ylmethyl}-phenyl)-urea]
Cc1ccc(-n2nc(C(C)(C)C)cc2NC(=O)Nc2cccc(CC3CCN(C(=O)CCc4ccco4)CC3)c2)cc1 [Compound A81, 1-(5-tert-Butyl-2-p-tolyl-2H-pyrazol-3-yl)-3-{3-[1-(3-furan-2-yl-propionyl)-piperidin-4-ylmethyl]-phenyl}-urea]

Source: patent US7541368B2, “Pyrazoles as inhibitors of tumor necrosis factor” (Aventis Pharmaceuticals Inc., priority 2003, dated 2009)
